Measured values reported in article PMC8091166 (Journal of the American Chemical Society, 2017).

Tests used:
HeLa cells [1] = experiment: MTT assay, in vitro anticancer activity in HeLa cells
[2] = Capacity factor on a C18 RP-HPLC column; type: physicochemical; details: isocratic 40:60 MeCN:H2O, 0.1% TFA; for MeCN Complex Capacity Factor: MeCN adduct of the complex
HeLa cells [3] = experiment: Annexin V/PI assay; type: cell-based
[4] = test system: intracellular reactive oxygen species (ROS) in HeLa cells; experiment: ROS analysis with DCFDA and flow cytometry; type: cell-based; details: DCFDA
[5] = test system: mitochondrial membrane potential (MMP) in HeLa cells; experiment: JC-1 assay; type: cell-based; details: 13 at 5 or 10 μM
[6] = test system: MRC-5 normal lung fibroblasts; experiment: Cell viability in MRC-5 cells; type: cell-based
[7] = test system: A549 lung cancer cell line; experiment: Cell viability in A549 cells; type: cell-based
[8] = test system: KBCP20 cisplatin-resistant cervical cancer cell line; experiment: Cell viability in KBCP20 cells; type: cell-based
[9] = test system: KB-3-1 cervical cancer cell line; experiment: Cell viability in KB-3-1 cells; type: cell-based
[10] = test system: A2780CP70 cisplatin-resistant ovarian cancer cell line; experiment: Cell viability in A2780CP70 cells; type: cell-based
[11] = test system: A2780 ovarian cancer cell line; experiment: Cell viability in A2780 cells; type: cell-based
HeLa cells [12] = experiment: Cell cycle analysis; type: cell-based
[13] = test system: PARP, cleaved PARP, LC3, ERK, p-ERK in HeLa cells; experiment: Western blot analysis of protein expression; type: cell-based
HeLa cells [14] = experiment: Cell viability in the presence of inhibitors; type: cell-based; details: 15 μM Z-VAD-FMK
[15] = test system: H460 lung cancer cell line; experiment: Cell viability in H460 cells; type: cell-based
[16] = test system: A549 CisR cisplatin-resistant lung cancer cell line; experiment: Cell viability in A549 CisR cells; type: cell-based
[17] = test system: H460 CisR cisplatin-resistant lung cancer cell line; experiment: Cell viability in H460 CisR cells; type: cell-based

Compound: COC(=O)c1ccnc(-c2cc(C(=O)OC)ccn2)c1.O.[C-]#[O+].[C-]#[O+].[C-]#[O+].[Re+] [Complex 11]
- relative cytotoxicity among the complexes (HeLa cells [1]): least active
- MeCN Complex Capacity Factor [2]: 8.2
- Aqua Complex Capacity Factor [2]: 4.2

Compound: COc1cc([C@@H]2c3cc4c(cc3[C@@H](O[C@@H]3O[C@@H]5CO[C@@H](C)O[C@H]5[C@H](O)[C@H]3O)[C@H]3COC(=O)[C@H]23)OCO4)cc(OC)c1O [etoposide]
- effect of pan-caspase inhibitor Z-VAD-FMK in the annexin V assay (HeLa cells [3]): reduce the apoptotic population

Compound: OO [Complex H2O2, H2O2]
- increase in the intracellular ROS [4]: greater than 30 fold

Compound: carbonyl cyanide m-chlorophenyl hydrazine [CCCP]
- depolarization of the MMP (JC-1 aggregates) [5]: substantial reduction in the number of JC-1 aggregates

Compound: N.N.[Cl][Pt][Cl] [Cisplatin, cisplatin]
- IC50 (HeLa cells [1]; read-out: 50% growth inhibitory concentration (IC50), MTT assay): 3 ± 1.2 µM
- IC50 [6]: 0.43 ± 0.14 µM
- IC50 [7]: 3 ± 1.8 µM
- IC50 [8]: 36 ± 7 µM
- IC50 [9]: 1 ± 0.3 µM
- IC50 ([10]; A2780CP70 cells): 8.2 ± 1.8 µM
- RF (A2780), resistance factor ([10]; IC50 in A2780CP70 divided by IC50 in A2780): 36
- IC50 [11]: 0.23 ± 0.07 µM
- cell cycle arrest phase (HeLa cells [12]): inhibits cells predominantly in the S-phase
- expression levels of PARP, cleaved PARP, LC3, ERK, p-ERK [13]: induced the increase of cleaved PARP levels
- change of IC50 in the presence of Z-VAD-FMK (HeLa cells [14]): increased by a factor of four
- IC50 [15]: 0.75 ± 0.43 µM
- IC50 ([16]; A549 CisR cells): 12.4 ± 8.5 µM
- RF (A549), resistance factor ([16]; IC50 in A549 CisR divided by IC50 in A549): 4.1
- IC50 ([17]; H460 CisR cells): 3.4 ± 1.6 µM
- RF (H460), resistance factor ([17]; IC50 in H460 CisR divided by IC50 in H460): 4.5

Compound: O.[C-]#[O+].[C-]#[O+].[C-]#[O+].[Re+].c1ccc(-c2ccnc3c2ccc2c(-c4ccccc4)ccnc23)cc1 [Complex 14]
- relative cytotoxicity among the complexes (HeLa cells [1]): substantially diminished relative to that of 13
- MeCN Complex Capacity Factor [2]: >17
